Key:
B16 mouse melanoma cells = experiment: Inhibition of pigment (melanin) production in B16 mouse melanoma cells; type: cell-based; settings: 72 h, 3 days incubation, average of 4 wells, read-out: % of melanin inhibition in B16 mouse melanoma cells assay compared to control, normalised to protein levels
Source text: B16 mouse melanoma cells are widely available for example by purchase from the American Type Culture Collection (ATCC) and are routinely used by those skilled in the art to assay pigment production. The cells make and secrete melanin, a dark pigment, into the medium as the cells approach confluence. Methods for general cell culture may be easily accessed in text books and on-line (eg General Techniques of Cell Culture; M.A. Harrison and I.F. Rae Authors; Cambridge University Press ISBN 052157496X)
B16 mouse melanoma cells were maintained in cell culture and used for tests in antibiotic free Lonza Biowhittaker (BE12-662F) media (50ml fetal bovine serum and 5 ml I-glutamine (Sigma G7513) per 500 ml bottle).
The cells were maintained and grown at 37°C in an atmosphere of 5 % CO2. Trypsin/ethylene diamine tetraacetic acid (EDTA; Sigma T3924) and Dulbeccos Phosphate Buffered Saline (DPBS; Sigma D8537) were used to passage the cells as they approached ≥80 % confluence, diluting the cells by one tenth for maintenance culture.
For the pigment reduction assays, 48 well plates were seeded with 2.5 x 10^4 cells per well in phenol red-free, antibiotic-free medium (Sigma D1145) supplemented with foetal bovine serum and glutamine. Care was taken to make sure less adherent cells were not lost during the seeding process.
The plates were incubated overnight at 37°C/5 % CO2 atmosphere. The media was removed from the plates one-by-one and fresh media containing the test compound or control additions was added to each well. Compounds were prepared as stock solutions at 1000 fold higher concentration than that used for assay in dimethylsulphoxide (DMSO). Control media additions included 0.1 % DMSO, media alone and positive control(s) known to inhibit pigment production such as ketoconazole or 4-ethylresorcinol. The cells were incubated at 37°C/5 % CO2 atmosphere for a further 3 days. Cultures were assessed for melanin secretion into the medium and, as controls for toxicity of the added ingredients, for protein level and metabolic activity. A reduction in metabolic activity or protein levels is indicative of cell toxicity. The most desirable compounds therefore in the assay are those that show melanin production inhibition without loss of metabolic function or reduction in protein levels.
Media was removed from the cell plates and put into storage plates. The plates were sealed until assayed later in the day. Melanin was measured by determining optical density at 450 nm and making a comparison against melanin standards (Sigma M8631) made up anew on each day of testing. The standards used were 1000 µg/ml; 500 µg/ml; 250 µg/ml; 125 µg/ml; 62.5 µg/ml; 31.25 µg/ml; and 15.625 µg/ml.
Without delay, 100 µl of RIPA buffer (Sigma R0278) with protease inhibitor (Sigma S8830- use as per Sigma instructions) was added to the wells and the plates frozen at -20°C until the protein assessment was carried out. For example Pierce BCA Protein Assay (Thermo Scientific # 23225) can be used as per manufacturer's instructions with 10 µl of sample for each replicate.
Control and test melanin values were calculated as the average of results from 4 wells, corrected for protein levels in the cultures. The percent reduction in melanin production was calculated for each compound concentration, setting the melanin production of control incubations (vehicle alone) at 100%. Compound concentrations causing > 20% loss of WST activity are considered toxic and not considered to be effective melanin inhibitors. A compound causing > 10% reduction of melanin production into the medium was considered to be an inhibitor. Table 1: B16 mouse melanoma cells assay results for compounds of the first aspect of the invention

Melanoderms™ = experiment: Pigment production by Living Skin Equivalents (Melanoderms); type: cell-based; settings: Homo sapiens, 336 h, 14 days, normalized to protein levels, read-out: Inhibition of melanin production (%) in Melanoderms™ compared to control
Source text: So called reconstructed pigmented 'skin' cultures containing keratinocytes and melanocytes are commercially available and for example can be purchased from MatTek Corp, 200, Homer Avenue, Ashland, MA, USA, under the trade name Melanoderm™. Melanoderms™ (catalogue reference MEL-300) containing melanocytes from […] donor skin were maintained in EPI-100-NMM113 media following the manufacturer's instructions and using standard methods for the maintenance of cultured mammalian cells under aseptic conditions. The Melanoderm™ cultures were treated with test agents for a total of 14 days. During the 14 day culture period the melanocytes in the Melanoderm™ cultures synthesise melanin in specialised vesicular structures called melanosomes. The pigmented melanosomes are transferred to the adjacent keratinocytes and the transferred-melanosomes tend to accumulate over the nucleus of the keratinocytes. This process is the same as occurs in skin in vivo and accordingly the Melanoderm™ culture is considered to be a very good test 'skin tissue' to mimic the effect of the skin pigmentation process in vivo. A compound that leads to a reduction in melanin production in the Melanoderm™ culture over 14 days by 10 % or more is considered to have a positive pigment reducing effect. It is important that the reduction in pigment occurs without substantive loss of cell viability such that the inhibitory effect of the test compound is due to its biological function rather than due to cell toxicity.
Culture media changes and re-dosing of compounds at selected concentrations took place every 2 or 3 days during the test period. Melanoderm™ cultures were also treated with control materials including the vehicle (dimethylsulphoxide; DMSO) used to dissolve the test material and a positive control material known to lead to the synthesis of reduced amounts of melanin in the cultures. Ketoconazole and/or 4-ethylresorcinol were used as positive controls. After 14 days culture, transmitted-light microscopy images were captured for every culture using a Leica DM IL microscope at x20 magnification.
The cell viability of the cultures was assessed using the so called WST-1 (Water Soluble Tetrazolium Salt -1) assay purchased from Roche Applied Science and following the manufacturer's instructions. The stable tetrazolium salt WST-1 is cleaved to a soluble formazan dye by a complex cellular mechanism that occurs primarily at the cell surface. This bioreduction is largely dependent on the glycolytic production of NADPH in viable cells. Therefore, the amount of soluble formazan dye formed in the culture medium directly correlates to the number of metabolically active cells in the culture. Cultures were incubated with WST-1 in the medium for 1 hour and production of formazan measured at 450 nm using a spectrophotometer plate reader, eg a BMG Labtech FLUOstar plate reader. Cultures were considered 'viable' if they generated greater than 80 % of the control value of formazan product. Subsequently the culture was washed briefly in phosphate buffer solution (PBS) and total melanin and protein extracted together from each culture using 250 µl Solvable (trademark, Perkin Elmer product 6NE9100) reagent at 60°C overnight as recommended by the manufacturer. The total protein content using a sample of the extracts was determined using the so called BCA (bicinchoninic acid) assay. The BCA assay may be purchased from Pierce Chemical Company and conducted following the manufacturer's instructions. Melanin was determined by measuring the absorbance at 485 nm, for example using a BMG Labtech FLUOstar plate reader. The amount of melanin extracted from each culture was determined by reference to a standard synthetic-melanin curve (Sigma Aldrich Chemical Co; catalogue reference M8631).
Melanin levels in each culture were expressed as values normalised to the amount of protein in the cultures and compared to control vehicle treated cultures. […]

Compound	inhibition at 1 µM (B16 mouse melanoma cells) [%]	inhibition at 5 µM (B16 mouse melanoma cells) [%]	inhibition at 10 µM (Melanoderms™) [%]	inhibition at 5 µM (Melanoderms™) [%]
N/C(=N\N=C\c1ccc(-c2ccncc2)cc1)NCc1ccc(O)cc1 [NC-0498, (E)-1-amino-N-(4-hydroxybenzyl)-1-{(2E)-[4-(pyridin-4-yl)benzylidene]hydrazinylidene}methanaminium iodide]	0	33	53	–
COC(=O)c1ccc(CN/C(N)=N/N=C/c2csc3ccccc23)cc1 [NC-0510, (E)-1-amino-1-[(2E)-(1-benzothiophen-3-ylmethylidene)hydrazinylidene]-N-[4-(methoxycarbonyl)benzyl]methanaminium iodide]	17	29	19	18
COC(=O)c1ccc(CN/C(N)=N/N=C/c2ccc3ccccc3n2)cc1 [NC-0511, (E)-1-amino-N-[4-(methoxycarbonyl)benzyl]-1-[(2E)-(quinolin-2-ylmethylidene)hydrazinylidene]methanaminium iodide]	54	100	19	27
N/C(=N\N=C\c1csc2ccccc12)NCc1ccc(Cl)c(Cl)c1 [NC-0515, (E)-1-amino-1-[(2E)-(1-benzothiophen-3-ylmethylidene)hydrazinylidene]-N-(3,4-dichlorobenzyl)methanaminium iodide]	0	54	–	–
N/C(=N\N=C\c1csc2ccccc12)NCc1ccc(F)cc1 [NC-0517, (E)-1-amino-1-[(2E)-(1-benzothiophen-3-ylmethylidene)hydrazinylidene]-N-(4-fluorobenzyl)methanaminium iodide]	32	35	20	4
N/C(=N\N=C\c1cc2ccccc2o1)NCc1ccccc1 [NC-0519, (E)-1-amino-1-[(2E)-(1-benzofuran-2-ylmethylidene)hydrazinylidene]-N-benzylmethanaminium iodide]	71	71	47	40
COC(=O)c1ccc(CN/C(N)=N/N=C/c2cc3ccccc3o2)cc1 [NC-0521, (E)-1-amino-1-[(2E)-(1-benzofuran-2-ylmethylidene)hydrazinylidene]-N-[4-(methoxycarbonyl)benzyl]methanaminium iodide]	46	64	–	35
COC(=O)c1ccc(CN/C(N)=N/N=C/c2cc3ccccc3s2)cc1 [NC-0522, (E)-1-amino-1-[(2E)-(1-benzothiophen-2-ylmethylidene)hydrazinylidene]-N-[4-(methoxycarbonyl)benzyl]methanaminium iodide]	59	53	31	34
COC(=O)c1cccc(CN/C(N)=N/N=C/c2csc3ccccc23)c1 [NC-0525, (E)-1-amino-1-[(2E)-(1-benzothiophen-3-ylmethylidene)hydrazinylidene]-N-[3-(methoxycarbonyl)benzyl]methanaminium iodide]	18	100	–	–
COc1ccc(CN/C(N)=N/N=C/c2csc3ccccc23)cc1 [NC-0528, (E)-1-amino-1-[(2E)-(1-benzothiophen-3-ylmethylidene)hydrazinylidene]-N-(4-methoxybenzyl)methanaminium iodide]	3	73	–	–
COc1ccc(CN/C(N)=N/N=C/c2cc3ccccc3o2)cc1 [NC-0531, (E)-1-amino-1-[(2E)-(1-benzofuran-2-ylmethylidene)hydrazinylidene]-N-(4-methoxybenzyl)methanaminium iodide]	39	39	40	35
Cc1ccc2[nH]c3c(c2c1)CCC/C3=N/N=C(\N)NCc1ccc(F)cc1 [NC-0536, (E)-1-amino-N-(4-fluorobenzyl)-1-{(2Z)-[6-methyl-2,3,4,9-tetrahydro-1H-carbazol-1-ylidene]hydrazinylidene}methanaminium iodide]	24	8	–	–
Cc1ccc2[nH]c3c(c2c1)CCC/C3=N/N=C(\N)NCc1c(Cl)cccc1Cl [NC-0537, (E)-1-amino-N-(2,6-dichlorobenzyl)-1-{(2Z)-[6-methyl-2,3,4,9-tetrahydro-1H-carbazol-1-ylidene]hydrazinylidene}methanaminium iodide]	51	37	–	–
